Measurements taken from ChEMBL document CHEMBL5726598, “Compounds, compositions and methods” (2017).
pIC50: −log10 of the molar value.

Target: T1, Receptor-interacting serine/threonine-protein kinase 1 (Homo sapiens, UniProt Q13546)
T1 sequence (Q13546 whole entry): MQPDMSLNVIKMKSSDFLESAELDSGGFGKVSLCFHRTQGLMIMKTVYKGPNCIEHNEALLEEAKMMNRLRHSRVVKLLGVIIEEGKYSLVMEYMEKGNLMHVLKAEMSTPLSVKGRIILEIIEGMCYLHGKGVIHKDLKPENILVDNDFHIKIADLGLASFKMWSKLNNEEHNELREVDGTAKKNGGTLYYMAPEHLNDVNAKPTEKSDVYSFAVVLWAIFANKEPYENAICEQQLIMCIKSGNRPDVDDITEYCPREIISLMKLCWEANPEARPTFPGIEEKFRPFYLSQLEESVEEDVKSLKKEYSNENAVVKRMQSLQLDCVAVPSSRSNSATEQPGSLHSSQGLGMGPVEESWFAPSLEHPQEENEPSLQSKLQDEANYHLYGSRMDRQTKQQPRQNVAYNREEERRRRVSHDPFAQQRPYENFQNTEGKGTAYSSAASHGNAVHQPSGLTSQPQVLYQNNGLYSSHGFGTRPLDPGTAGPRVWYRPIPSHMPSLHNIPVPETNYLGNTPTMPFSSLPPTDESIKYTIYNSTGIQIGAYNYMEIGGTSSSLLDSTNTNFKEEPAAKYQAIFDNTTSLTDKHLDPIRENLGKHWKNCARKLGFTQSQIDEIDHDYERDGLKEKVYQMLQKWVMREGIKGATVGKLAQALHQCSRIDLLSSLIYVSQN
Experiment: For negative control the enzyme addition was replaced by assay buffer only.

SMILES | pIC50
CN1C(=O)[C@H](NC(=O)c2cc(Oc3ccc(F)cc3F)ccn2)CCc2cccnc21 | < 5.52
CN1C(=O)[C@@H](NC(=O)c2cc(C3(c4ccccc4)CC3)on2)COc2cnccc21 | 6.00 to 10.00
CN1C(=O)[C@@H](NC(=O)c2nn(Cc3ccccc3C#N)cc2F)COc2cccnc21 | 6.00 to 10.00
